Test results: US20090191578A1, “Canis sphingosine 1-phosphate receptor isoform 5” (MERCK & CO., INC, priority 2004, published 2009)

Columns and labels:
[1] = target: T1, cS1P5 receptor (Canis lupus familiaris, UniProt A0A8I3Q0H0); test: 35S-GTPγS binding assay with membranes from transfected CHO cells expressing the cS1P5 receptor; type: biochemical, Canis (dog); conditions: 5 μM GDP, 100 pM 35S-GTPγS, one hour at room temperature, FIG. 4, read-out: EC50 (35S-GTPγS binding, coupling GTP to Gα)
Protocol: Functional coupling of S1P5 receptor to G proteins was measured in a ^35S-GTPγS binding assay. Membranes were prepared from transfected cells by homogenization in ice cold 20 mM HEPES pH 7.4, 10 mM EDTA using a Kinematica polytron (setting 5, for 10 seconds). Homogenates were centrifuged at 48,000×g for 15 minutes at 4° C. and the pellet suspended in 20 mM HEPES pH 7.4, 0.1 mM EDTA. Following a second centrifugation, the final pellet was suspended in 20 mM HEPES pH 7.4, 100 mM NaCl, 10 mM MgCl2. Membranes were incubated in 200 μL with 5 μM GDP, various concentrations of S1P (sonicated in 1% BSA), and 100 pM ^35S-GTPγS (NEN; specific activity 1250 Ci/mmol) in 96 well microtiter dishes. Binding was performed for one hour at room temperature, and terminated by harvesting the membranes onto GF/B filter plates with a Packard Filtermate Universal Harvester. After drying the filter plates for 30 min, 40 μL of MICROSCINT 20 was added to each well and binding was measured on a Packard Top Count scintillation counter.

[2] = target: T1, cS1P5 receptor; test: S1P ligand binding assay with transfected CHO cells expressing the cS1P5 receptor; set-up: species or system Canis (dog); conditions: 33P-S1P, 60 minutes at room temperature, FIG. 3
Protocol: The transfected CHO cells from Example 2 expressing the cS1P5 receptor were evaluated for the ability of the cS1P5 receptor expressed in the cells to properly integrate into the cell membrane and bind S1P.
Transfected CHO cells from Example 2 were harvested with enzyme-free dissociation solution (Specialty Media, Lavallette, N.J.). The cells were washed once in cold PBS and suspended in S1P binding buffer (50 mM HEPES-Na, pH 7.5, 5mM MgCl2, 1 mM CaCl2, 0.5% FAF-BSA). ^33P-S1P was synthesized enzymatically from γ^33P-ATP and sphingosine using a crude extract with sphingosine kinase activity in a reaction mix containing 50 mM KH2PO4, 1 mM mercaptoethanol, 1 mM Na3VO4, 25 mM KF, 2 mM semicarbazide, 1 mM Na2EDTA, 5 mM MgCl2, […], 0.1% TritonX-114, and 1 mCi γ^33P-ATP (NEN; specific activity 2000 Ci/mmol). Reaction products were extracted with butanol and ^33P-sphingosine-1-phosphate was purified by HPLC.
^33P-S1P (0.1 uCi/ml) was sonicated with 0.2 nM sphingosine-1-phosphate dissolved in binding buffer; 100 μL of the mixture was added to 100 μL cells (1×10^5). Binding was performed for 60 minutes at room temperature. […] After drying the filter plates for 30 minutes, 50 μL of MICROSCINT 20 was added to each well and binding was measured with a Packard Top Count. Non-specific binding was defined as the amount of radioactivity remaining in the presence of 200 nM cold S1P.

EC50 [1]: ~0.79 nM
EC50 [2]: ~0.21 nM
Structure (SMILES): CCCCCCCCCCCCC/C=C/[C@@H](O)[C@@H](N)COP(=O)(O)O [S1P, sphingosine-1-phosphate]
